From patent publication US4230703A, “11-Oxodibenz(b,e)azepines” (priority 1977, dated 1980)

Experiments:
[1] = test system: volume of edema of left hind paw (carrageenin); assay: Test on anti-inflammatory activity (carrageenin hind paw edema); type: in vivo, Wistar male rats; settings: Rattus norvegicus, po, 3 h, p.o., read-out: Percent inhibition (average value ± standard error)
Description: In each group, the volumes of the left hind paw were measured by a volume differential meter (made by Ugo Basile Company), and 0.1 ml of a 1% suspension of carrageenin in distilled water was subcutaneously injected into the plantar tissues of the left hind paw. One hour later, each of the test compounds was suspended in the same vehicle as used in the test on analgesic activity and administered orally to the rats. Three hours later, the volumes of the left hind paw were again measured. The increase in volume of the left hind paw of each rat in each group (the volume of edema) was measured. The percent edema inhibition on the group administered with the test compounds based on the control group administered only with the vehicle was calculated in accordance with the following equation, and the results are shown in Table 2. [formula]

[2] = test system: number of writhings (0.6% acetic acid, intraperitoneal); assay: Test on analgesic activity (acetic acid-induced writhing); type: in vivo, mice (ddY, male); settings: Mus musculus, po, mice; parentheses = 95% confidence limits
Description: Male mice (ddY) with a body weight of 18 to 22 g were used in groups each consisting of 10 mice. Each of the compounds was suspended in an aqueous solution of 0.5% of carboxymethyl cellulose and 2.0% of Tween 80, and the resulting suspension was administered orally to the mice through a tube. One hour after the administration, 0.6% acetic acid was administered intraperitoneally in an amount of 0.1 ml per 10 g of body weight, and the number of writhings which occurred in the mice during a period of 20 minutes after the administration was measured. The percent inhibition on a group administered with the test compound based on the control group administered only with the vehicle was calculated from the following equation, and the ED50 values of the test compounds were calculated from the percent inhibition in accordance with the method of Litchfield-Wilcoxon. [formula]
The parenthesized numerals show 95% confidence limits.

in vivo = settings: rat, in vivo, po
Description: (§1) Each of the test compounds was suspended in a physiological saline solution having dissolved therein 2% of Tween 80, and orally administered through a tube to groups of SD male and female rats (male: 130 to 150 g, female: 120 to 140 g) each group consisting of 8 rats. The rats were then observed for 2 weeks.

SD male and female rats = assay: in vivo; settings: oral
Description: as §1

Row | Compound | inhibition in vivo at 90 mg/kg [1] | ED50 [2] | inhibition in vivo at 30 mg/kg [1] | other results
1 | CN1Cc2ccccc2C(=O)c2c(CC(=O)O)cccc21 [C, 5,6-dihydro-5-methyl-11-oxodibenz[b,e]azepine-1-acetic acid] | 11.4 ± 12.7% |  |  | inhibition in vivo at 180 mg/kg ([1]; 180 mg/kg): 28.6 ± 8.3%
2 | CCCN1Cc2ccccc2C(=O)c2cc(CC(=O)O)ccc21 [J, 5,6-dihydro-5-n-propyl-11-oxodibenz[b,e]azepine-2-acetic acid] | 30.4 ± 4.8% | 15.5 mg/kg | 18.6 ± 5.2% | 
3 | CN1Cc2ccccc2C(=O)c2cc(CC(=O)O)cc(Cl)c21 [G, 5,6-dihydro-4-chloro-5-methyl-11-oxodibenz[b,e]azepine-2-acetic acid] | 35.4 ± 5.5% |  | 23.8 ± 6.9% | 
4 | CCCCC1C(=O)N(c2ccccc2)N(c2ccccc2)C1=O [Phenylbutazone, phenylbutazone, reference compound] | 34.2 ± 5.3% | 130 mg/kg | 20.7 ± 2.4% | 
5 | O=C(O)Cc1ccc2c(c1)C(=O)c1ccccc1CN2 [M, 5,6-dihydro-11-oxodibenz[b,e]azepine-2-acetic acid] |  | 5.1 mg/kg | 41.2 ± 5.4% | LD50 at 336 h (in vivo; female): 840 mg/kg; LD50 at 336 h (in vivo; male): 810 mg/kg; Minimum lethal dose (SD male and female rats; female): 720 mg/kg; Minimum lethal dose (SD male and female rats; male): 720 mg/kg; inhibition in vivo at 10 mg/kg [1]: 37.3 ± 2.4%
6 | CNC(=O)Cc1ccc2c(c1)C(=O)c1ccccc1CN2C [Compound E, 5,6-dihydro-5-methyl-11-oxodibenz[b,e]azepine-2-acetic acid methyl amide] | 44.8 ± 7.5% | 46.5 mg/kg | 11.3 ± 4.3% | 
7 | CN1Cc2ccccc2C(=O)c2ccc(CC(=O)O)cc21 [Compound D, 5,6-dihydro-5-methyl-11-oxodibenz[b,e]azepine-3-acetic acid] |  | 78 mg/kg | 36.4 ± 11.9% | inhibition in vivo at 10 mg/kg [1]: 26.8 ± 2.9%
8 | CN1Cc2cc(Cl)ccc2C(=O)c2cc(CC(=O)O)ccc21 [H, 5,6-dihydro-5-methyl-8-chloro-11-oxodibenz[b,e]azepine-2-acetic acid] | 34.9 ± 6.5% |  | 26.8 ± 7.3% | 
9 | COC(=O)Cc1ccc2c(c1)C(=O)c1ccccc1CN2C [F, methyl 5,6-dihydro-5-methyl-11-oxodibenz[b,e]azepine-2-acetate] |  |  | 11.8 ± 3.4% | 
10 | CN1Cc2ccccc2C(=O)c2cc(CC(=O)OCC3COC(C)(C)O3)ccc21 (centres unmarked) [L, 2,2-dimethyl-1,3-dioxolan-5-yl methyl 5,6-dihydro-5-methyl-11-oxodibenz[b,e]azepine-2-acetate] | 33.3 ± 4% |  | 17.6 ± 5.1% | 
11 | CN1Cc2ccccc2C(=O)c2cc(CC(=O)O)ccc21 [A, 5,6-dihydro-5-methyl-11-oxodibenz[b,e]azepine-2-acetic acid] | 43.9 ± 6.6% | 9 mg/kg | 30.4 ± 4.4% | inhibition in vivo at 10 mg/kg [1]: 28.5 ± 2.8%
12 | CC(C(=O)O)c1ccc2c(c1)C(=O)c1ccccc1CN2C (centres unmarked) [B, 2-(5,6-dihydro-5-methyl-11-oxodibenz[b,e]azepin-2-yl)propionic acid] | 38.6 ± 5.3% | 26 mg/kg | 23.2 ± 3.2% | 
13 | CCN1Cc2ccccc2C(=O)c2cc(CC(=O)O)ccc21 [I, 5,6-dihydro-5-ethyl-11-oxodibenz[b,e]azepine-2-acetic acid] | 35.1 ± 8.2% | 15.9 mg/kg | 25.6 ± 5.8% | inhibition in vivo at 10 mg/kg [1]: 20.2 ± 6.6%
14 | CN1Cc2ccccc2C(=O)c2cc(CC(=O)OCCO)ccc21 [K, hydroxyethyl 5,6-dihydro-5-methyl-11-oxodibenz[b,e]azepine-2-acetate] | 30.4 ± 5.5% |  | 23.5 ± 11.1% | 
